Where two headings read alike, the source gives them in different places.
Tests used:
Experiment in all cases: microbe, parasite or virus in culture
Assay type in all cases: cell-based
Vaccinia virus (NYCBH) = settings: Orthopoxvirus vaccinia, Vero, 72 h
[1] = system: monkeypox virus (Zaire (V79-1-005-scab)); settings: read-out: Monkeypox EC50
camelpox = settings: read-out: Camelpox EC50
wild type cowpox virus = settings: read-out: Cowpox EC50
[2] = read-out: EC50 of reference standards in vaccinia CPE assay

Compound	EC50 (Vaccinia virus (NYCBH); [2]) [nM]	EC50 (Vaccinia virus (NYCBH); read-out: Vaccinia EC50) [nM]	EC50 [1] [nM]	EC50 (camelpox) [nM]	EC50 (wild type cowpox virus) [nM]
Nc1ccn(C[C@@H](CO)OCP(=O)(O)O)c(=O)n1 [CDV, (S)-1-(3-hydroxy-2-phosphonylmethoxypropyl)cytosine, reference compound]	84000 ± 15000	–	–	–	–
O=C(NN1C(=O)[C@@H]2C3C=CC(C4CC43)[C@@H]2C1=O)c1ccncc1 (some centres unmarked) [Example 2, N-(3,3a,4,4a,5,5a,6,6a,- octahydro-1,3-dioxo-4,6-ethenocycloprop[f]isoindol-2(1H)-yl)-4-pyridinecarboxamide]	–	< 500	< 500	< 500	1000 to 5000
O=C(NN1C(=O)[C@@H]2C3C=CC(C4CC43)[C@@H]2C1=O)c1ccc(Br)cc1 (some centres unmarked) [Example 3, 4-Bromo-N-(3,3a,4,4a,5,5a,6,6a,- octahydro-1,3-dioxo-4,6-ethenocycloprop[f]isoindol-2(1H)-yl)-benzamide]	–	< 500	< 500	< 500	500 to 1000
O=C(NN1C(=O)[C@@H]2C3C=CC(C4CC43)[C@@H]2C1=O)c1cccc(Br)c1 (some centres unmarked) [Example 4, 3-Bromo-N-(3,3a,4,4a,5,5a,6,6a,- octahydro-1,3-dioxo-4,6-ethenocycloprop[f]isoindol-2(1H)-yl)-benzamide]	–	< 500	–	–	1000 to 5000
O=C(NN1C(=O)[C@@H]2C3C=CC(C4CC43)[C@@H]2C1=O)c1cccc(Cl)c1 (some centres unmarked) [Example 5, 3-Chloro-N-(3,3a,4,4a, 5,5a,6,6a,- octahydro-1,3-dioxo-4,6-ethenocycloprop[f]isoindol-2(1H)-yl)-benzamide]	–	500 to 1000	–	–	500 to 1000
O=C(NN1C(=O)[C@@H]2C3C=CC(C4CC43)[C@@H]2C1=O)c1ccccc1Br (some centres unmarked) [Example 6, 2-Bromo-N-(3,3a,4,4a,5,5a,6,6a,- octahydro-1,3-dioxo-4,6-ethenocycloprop[f]isoindol-2(1H)-yl)-benzamide]	–	500 to 1000	–	–	> 5000
O=C(NN1C(=O)[C@@H]2C3C=CC(C4CC43)[C@@H]2C1=O)c1ccccc1Cl (some centres unmarked) [Example 7, 2-Chloro-N-(3,3a,4,4a,5,5a,6,6a,- octahydro-1,3-dioxo-4,6-ethenocycloprop[f]isoindol-2(1H)-yl)-benzamide]	–	< 500	–	–	–
O=C(NN1C(=O)[C@@H]2C3C=CC(C4CC43)[C@@H]2C1=O)c1ccc(Cl)cc1 (some centres unmarked) [Example 8, 4-Chloro-N-(3,3a,4,4a,5,5a,6,6a,- octahydro-1,3-dioxo-4,6-ethenocycloprop[f]isoindol-2(1H)-yl)-benzamide]	–	< 500	–	–	500 to 1000
O=C(NN1C(=O)[C@@H]2C3C=CC(C4CC43)[C@@H]2C1=O)c1cccnc1 (some centres unmarked) [Example 9, N-(3,3a,4,4a,5,5a,6,6a,- octahydro-1,3-dioxo-4,6-ethenocycloprop[f]isoindol-2(1H)-yl)-3-pyridinecarboxamide]	–	< 500	–	–	> 5000
O=C(NN1C(=O)[C@@H]2C3C=CC(C4CC43)[C@@H]2C1=O)c1ccccn1 (some centres unmarked) [Example 10, N-(3,3a,4,4a,5,5a,6,6a,- octahydro-1,3-dioxo-4,6-ethenocycloprop[f]isoindol-2(1H)-yl)-2-pyridinecarboxamide]	–	> 5000	–	–	> 5000
COc1ccc(C(=O)NN2C(=O)[C@@H]3C4C=CC(C5CC54)[C@@H]3C2=O)cc1 (some centres unmarked) [Example 11, 4-Methoxy-N-(3,3a,4,4a,5,5a,6,6a,- octahydro-1,3-dioxo-4,6-ethenocycloprop[f]isoindol-2(1H)-yl)-benzamide]	–	1000 to 5000	–	–	> 5000
O=C(NN1C(=O)[C@@H]2C3C=CC(C4CC43)[C@@H]2C1=O)c1ccc([N+](=O)[O-])cc1 (some centres unmarked) [Example 12, 4-Nitro-N-(3,3a,4,4a,5,5a,6,6a,- octahydro-1,3-dioxo-4,6-ethenocycloprop[f]isoindol-2(1H)-yl)-benzamide]	–	< 500	–	–	< 500
O=C(NN1C(=O)[C@@H]2C3C=CC(C4CC43)[C@@H]2C1=O)c1ccc(F)cc1 (some centres unmarked) [Example 13, 4-Fluoro-N-(3,3a,4,4a,5,5a,6,6a,- octahydro-1,3-dioxo-4,6-ethenocycloprop[f]isoindol-2(1H)-yl)-benzamide]	–	< 500	–	–	500 to 1000
O=C(NN1C(=O)[C@@H]2C3C=CC(C4CC43)[C@@H]2C1=O)c1cccc(F)c1 (some centres unmarked) [Example 14, 3-Fluoro-N-(3,3a,4,4a,5,5a,6,6a,- octahydro-1,3-dioxo-4,6-ethenocycloprop[f]isoindol-2(1H)-yl)-benzamide]	–	< 500	–	–	1000 to 5000
O=C(NN1C(=O)[C@@H]2C3CCC(C4CC43)[C@@H]2C1=O)c1ccc(Br)cc1 (some centres unmarked) [Example 15, 4-Bromo-N-(3,3a,4,4a,5,5a,6,6a-octahydro-1,3-dioxo-4,6-ethanocycloprop[f]isoindol-2(1H)-yl)-benzamide]	–	< 500	< 500	< 500	< 500
O=C(NN1C(=O)C2CCCCC2C1=O)c1ccc(Br)cc1 (centres unmarked) [Example 17, 4-Bromo-N-(octahydro-1,3-dioxo-2H-isoindol-2-yl)-benzamide]	–	< 500	–	–	1000 to 5000
O=C(NN1C(=O)[C@@H]2C3C=CC(CC3)[C@@H]2C1=O)c1ccc(Br)cc1 [Example 18, 4-Bromo-N-bicyclo[2.2.2]oct-5-ene-2,3-dicarboximido-benzamide]	–	< 500	–	–	< 500
O=C(NN1C(=O)[C@@H]2C3CCC(CC3)[C@@H]2C1=O)c1ccc(Br)cc1 [Example 19, 4-Bromo-N-bicyclo[2.2.2]octane-2,3-dicarboximido-benzamide]	–	< 500	–	–	< 500
N#Cc1ccc(C(=O)NN2C(=O)[C@@H]3C4C=CC(C5CC54)[C@@H]3C2=O)cc1 (some centres unmarked) [Example 20, 4-Cyano-N-(3,3a,4,4a,5,5a,6,6a,- octahydro-1,3-dioxo-4,6-ethenocycloprop[f]isoindol-2(1H)-yl)-benzamide]	–	< 500	–	–	< 500
O=C(NN1C(=O)[C@@H]2C3CCC([C@H]4C[C@@H]34)[C@@H]2C1=O)c1ccc(C(F)(F)F)cc1 [Example 21, 4-Trifluoromethyl-N-(3,3a,4,4a,5,5a,6,6a,- octahydro-1,3-dioxo-4,6-ethanocycloprop[f]isoindol-2(1H)-yl)-benzamide]	–	< 500	–	–	< 500
Cc1ccc(C(=O)NN2C(=O)[C@@H]3C4C=CC(C5CC54)[C@@H]3C2=O)cc1 (some centres unmarked) [Example 22, 4-Methyl-N-(3,3a,4,4a,5,5a,6,6a,- octahydro-1,3-dioxo-4,6-ethanocycloprop[f]isoindol-2(1H)-yl)-benzamide]	–	< 500	–	–	1000 to 5000
O=C(NN1C(=O)[C@@H]2C3C=CC([C@@H]2C1=O)C31CC1)c1cccc(Br)c1 [Example 23, 3-Bromo-N-(1′,3,3′a,4′,7,7′a-hexahydro-1′,3′,dioxospiro [cyclopropane-1,8′-[4,7]methano[2H]isoindol]-2′-yl)-benzamide]	–	< 500	–	–	–
O=C1[C@@H]2C3C=CC(C4CC43)[C@@H]2C(=O)N1NC(=O)C12CC3CC(CC(C3)C1)C2 (some centres unmarked) [Example 24, N-(3,3a,4,4a,5,5a,6,6a,- octahydro-1,3-dioxo-4,6-ethenocycloprop[f]isoindol-2(1H)-yl)-tricyclo[3.3.1.13.7] decane-1-carboxamide]	–	< 500	< 500	< 500	500 to 1000
O=C(Cc1ccccc1)NN1C(=O)[C@@H]2C3C=CC(C4CC43)[C@@H]2C1=O (some centres unmarked) [Example 25, N-(3,3a,4,4a,5,5a,6,6a,- octahydro-1,3-dioxo-4,6-ethenocycloprop[f]isoindol-2(1H)-yl)-benzeneacetamide]	–	500 to 1000	–	–	> 5000
O=C(NN1C(=O)[C@@H]2C3C=CC(C3)[C@@H]2C1=O)c1ccc(Br)cc1 [Example 26, 4-Bromo-N-(1,3,3a,4,7,7a-hexahydro-1,3,-dioxo-4,7-methano-2H-isoindol-2-yl)-benzamide]	–	< 500	–	–	–
O=C(NN1C(=O)[C@@H]2C3C=CC(C3)[C@@H]2C1=O)c1ccc(Cl)cc1Cl [Example 27, 2,4-Dichloro-N-(1,3,3a,4,7,7a-hexahydro-1,3,-dioxo-4,7-methano-2H-isoindol-2-yl)-benzamide]	–	500 to 1000	–	–	–
O=C(NN1C(=O)[C@@H]2C3C=CC(CC3)[C@@H]2C1=O)c1ccc(C(F)(F)F)cc1 [Example 28, 4-Trifluoromethyl-N-bicylo [2.2.2]oct-5-ene-2,3-dicarboximido-benzamide]	–	< 500	–	–	< 500
O=C(NN1C(=O)[C@@H]2C3CCC(CC3)[C@@H]2C1=O)c1ccc(C(F)(F)F)cc1 [Example 29, 4-Trifluoromethyl-N-bicyclo [2.2.2]octane-2,3-dicarboximido-benzamide]	–	< 500	–	–	< 500
Cc1nc(C)c(C(=O)NN2C(=O)[C@@H]3C4C=CC(C5CC54)[C@@H]3C2=O)s1 (some centres unmarked) [Example 41, 2,4-Dimethyl-N-(3,3a,4,4a,5,5a,6,6a-octahydro-1,3-dioxo-4,6-ethenocycloprop[f]isoindol-2(1H)-yl)-thiazole-5-carboxamide]	–	< 500	–	–	1000 to 5000
O=C(O)CP(=O)(O)O [PAA, phosphonoacetic acid, reference compound]	985000 ± 85000	–	–	–	–

Reference: US8039504B2 (priority 2003, dated 2011)
